Test [1] relates to ERK1/2. Kind of test: ERK1/2 phosphorylation, western blot in IgE-antigen stimulated RBL-2H3 cells. It is filed as cell-based. The settings on record: PLAG pre-incubated RBL-2H3 cells, IgE-antigen complex stimulation. As for the experimental part: Dephosphorylation of p38 MAPK and ERK1/2 in PLAG-treated RBL-2H3 cells is determined by western blot analysis using anti-phospho-p38 and anti-phospho-ERK1/2 respectively. To activate the p38 and ERK1/2 in RBL-2H3 cells, the cells are sensitized with 50 ng/mL of anti-DNP-IgE overnight. After washing with PBS three times, 20 ng/ml of DNP-HSA is added. Each cell lysate for western blot is prepared in the PLAG-treated RBL-2H3 cells in a dose-dependent manner and incubated for the same time (15 min). β-actin is used as internal controls. ERK1/2 and p38 phosphorylation start immediately after IgE-antigen complex stimulation and remain sufficiently activated for 5 min.
Background: In western blotting, separated proteins are transferred to a membrane and probed.

For test [2], the system named is bone marrow-derived HSC. Put plainly: In vitro colony formation in bone marrow-derived HSC. It is filed as cell-based.
Test [3] has as its system C3. Kind of test: C3 expression (RT-PCR) in IL-4/TNF-α treated HMC-1 cells. The settings on record: HMC-1 cells treated with IL-4 and TNF-α; PLAG 0.1 and 1 μg/mL. It counts as cell-based, human. On the procedure: A blood cell line, HMC-1 (human mast cell, American Type Culture Collection, ATCC, Rockville, Md.) is incubated and maintained at 37° C. under 5% CO2 humid conditions. The medium is IMDM (Life Technologies, Karlsruhe, Germany) containing 10% Fetal Calf Serum (FCS, HyClone, Logan, Utah), 2 mM […], 100 μg/ml penicillin, 100 μg/ml streptomycin (Life Technologies). The cultured HMC-1 cells (1×10^6 cell/ml) are pre-treated with 0.1 and 1 μg/mL concentration of PLAG, followed by treating with IL-4 (5 ng) and/or TNF-α (10 ng) to induce cellular activities.
The expressed C3 and its mRNA level change are observed by using RT-PCR (Reverse Transcriptase Polymerase Chain Reaction). The RT-PCR is carried out as follows: the total RNA is separated by the standard protocol and cDNA is synthesized using AccuScript High Fidelity 1st Strand cDNA Synthesis Kit (Stratagene) by the manufacturer's instructions. Two-step RT-PCR reaction is conducted using Oligo-dT primer and reverse transcriptase, pair of primer and Taq polymerase (Takara, Shiga, Japan). […] The product of PCR is separated using 1.5% agarose gel, dyed with ethidium bromide (EtBr), and visualized with Gel Doc 2000 UV trans-illuminator (Bio-Rad Laboratories, Hercules, Calif., USA), and the experimental data is analyzed using Quantity One software (Bio-Rad Laboratories).

In test [4] the test system is neutrophils and lymphocytes. Kind of test: Neutrophil and lymphocyte ratio in blood of LPS-treated Balb/C mice. It counts as in vivo. Conditions: LPS 1 mg/kg i.p. + PLAG 5 mg/kg oral, % of total leukocytes. As for the experimental part:
To observe the ratio of neutrophil and lymphocyte in the blood of Balb/C mice, 1 mg/kg of lipopolysaccharide (LPS) is injected to mice, i.p. to induce inflammation. 5 mg/kg of PLAG is administered to the mice orally and blood samples are taken at 3 and 13 days after. In addition, for comparison, normal mice that are not treated with PLAG, receive PBS (phosphate buffered saline) and olive oil. The blood samples taken from the mice are treated with EDTA bottle 0.5 ml (Minocollect tube, Greiner bio-one, Austria) and the level of neutrophils (NEU) and lymphocytes (LYM) as a percentage of total leukocytes is measured using automated blood sample analyzer BC-6800 (Mindray, Shenzhen, China).

Test [5] concerns C3. Put plainly: C3 protein by ELISA in HMC-1 cells. Conditions: HMC-1, PLAG 1, 10 and 100 μg/mL for 2 hours, 72 hours activation with 10% FBS. It is filed as cell-based, human. On the procedure:
In a separate experiment, human mast cells (HMC-1, 1×10^5 cell/ml) are treated with PLAG of various concentrations (1, 10 and 100 μg/mL) for 2 hours. The cells are activated for 72 hours with 10% FBS (Fetal bovine serum) containing IMDM. The decrease of C3 is confirmed by ELISA analysis of the expressed protein.
Background: An ELISA detects its analyte on a solid surface through an enzyme-linked reagent.

Test [6] relates to C3. Kind of test: C3 mRNA (RT-PCR) in HepG2 cells. It is filed as cell-based, human. Conditions: 2 hours. As for the experimental part:
A liver cell line, HepG2 (American Type Culture Collection, ATCC, Rockville, Md.), is incubated and maintained at 37° C., 5% CO2 humid atmosphere in DMEM medium. When HepG2 cells, which are known to produce complement in culture, are treated with PLAG, the activity of complement is reduced effectively, as confirmed by RT-PCR of mRNA. In the RT-PCR, 5×10^5 number of HepG2 cells/ml are distributed into 12 well plates and induced C3 for 12 hours with 10% FCS. Then PLAG is added and further cultured for 2 hours. Cells are harvested and mRNA is isolated and RT-PCR is carried out with specific primer of C3; GAPDH is used as an internal control.

For test [7], the system named is STAT6. Kind of test: STAT6 transcriptional activity reporter (luciferase) assay in HepG2 cells. It counts as cell-based, human. The settings on record: HepG2, 10 ng IL-4, PLAG 0.01-10 μg/ml, 12 hours. As for the experimental part: By using STAT6 inhibitor (S6I), it is confirmed that the reduction of Complement 3 in HepG2 cells (human hepatocyte cell line) is regulated by STAT6. […] It is also confirmed that PLAG has selective efficacy on STAT6 over STAT1. FIG. 1 presents graphs showing STAT1 and STAT6 transcriptional activity in the PLAG treated HepG2 cells. NC refers to the unstimulated control cell. For the STAT1 assay, gene transfected HepG2 (human hepatocyte cell line) is treated with 10 ng of IFN-γ and serially diluted PLAG is added (0.01 μg/ml, 0.1 μg/ml, 1 μg/ml, and 10 μg/ml as shown) to see its effect on gene expression in the stimulated cell. For the STAT6 assay, gene transfected HepG2 cells are treated with 10 ng of IL-4 and again serially diluted PLAG is added (0.01 μg/ml, 0.1 μg/ml, 1 μg/ml, and 10 μg/ml as shown) to see its effect on gene expression in the stimulated cell. The assay is carried out following 12 hours incubation of treated cells.

In the case of `CCCCC/C=C\C/C=C\CCCCCCCC(=O)OC(COC(C)=O)COC(=O)CCCCCCCCCCCCCCC` (racemic) [PLAG, 1-palmitoyl-2-linoleoyl-3-acetylglycerol], the ERK1/2 phosphorylation entry in test [1] is given as “down-regulated”. Besides, in test [2], the colony formation result was “increased colony formation”. The “expression of C3” value in test [3] is listed as “suppressed by PLAG on a concentration dependent basis”. In addition, the Lymphocyte ratio in test [4] was found to be 34.6 ± 7.0%. Besides, the “Neutrophil Ratio” value in test [4] was 53.2 ± 6.3%. In addition, in test [5], the “decrease of C3 (ELISA)” value is “proportional to the concentration of PLAG”. The “C3 expression (RT-PCR)” value is “somewhat” in test [6] (HepG2, 1 microgram/ml) and “entirely” in test [6] (HepG2, 10 microgram/ml). Further, in test [7], the “transcriptional activity of STAT6” value is listed as “gradually decreased”.

The values above are taken from patent publication US11357749B2, “Methods for treating neutropenia” (Enzychem Lifesciences Corporation, priority 2014, dated 2022).
